Drawing on ChEMBL document CHEMBL2384921, “An altered zinc-binding site confers resistance to a covalent inactivator of New Delhi metallo-beta-lactamase-1 (NDM-1) discovered by high-throughput screening” (Bioorg Med Chem, 2013), this text covers IC50, Imax and inhibition for eight compounds.

A short description of assay [1]: Inhibition of NDM-1 (unknown origin) using nitrocefin as substrate preincubated 10 mins followed by substrate addition measured after 20 mins.
Assay [2] can be described thus: Inhibition of TEM-1 (unknown origin) using nitrocefin as substrate preincubated 10 mins followed by substrate addition measured after 20 mins.
Assay [3] is described as follows: Inhibition of TEM-1 (unknown origin) using nitrocefin as substrate preincubated 10 mins followed by substrate addition measured after 20 mins relative to control.
Assay [4] in a line: Time-dependent inhibition of wild type NDM-1 (unknown origin) expressed in Escherichia coli BL21 (DE3) at 100 uM.
Assay [5] in a line: Time-dependent inhibition of recombinant NDM-1 C108D mutant (unknown origin) expressed in Escherichia coli BL21 (DE3) at 100 uM.

Active and inactive are the calls of the source. The calls are words filed in the database; no cut-off is given here. Some results are limits rather than exact numbers.

For orientation: IC50 means the concentration that inhibits the measured activity by half. Read a low IC50 as greater potency in that assay. As for `CCN(CC)C(=O)N[C@@H]1C[C@@H]2c3cccc4[nH]cc(c34)C[C@H]2N(C)C1`, the 50% inhibitory concentration (IC50) in assay [1] and in assay [2] was > 30 µM each time.

For `Nc1ccc2c3c(cccc13)C(=O)NC2=O`, the IC50 in assay [1] was 0.7 µM; in assay [2], 5.2 µM. The same compound came in with an Imax in assay [3] of 131%.

Regarding 4-CHLOROMERCURIBENZOIC ACID, the concentration for half-maximal inhibition (IC50) in assay [1] was 2.3 µM; in assay [2], > 30 µM.

Regarding 4-[sequence] ACID, in assay [3], the Imax is 8%. In addition, the inhibition entry in assay [4] is “Active”. Besides, in assay [5], the inhibition entry is “inactive”.

Regarding `OCCN(CCO)c1nc(N2CCCCC2)c2nc(N(CCO)CCO)nc(N3CCCCC3)c2n1` [DIPYRIDAMOLE], the figures for the half-maximal inhibitory concentration (IC50) in assay [1] and in assay [2] were > 10 µM and > 30 µM, respectively. In addition, in assay [3], the Imax was determined as 26%.

Take `Cc1c2ccncc2c(C)c2c1[nH]c1ccccc12` [ELLIPTECINE]: the IC50 in assay [1] and in assay [2] was > 30 µM in each case.

Regarding `CC(=O)[C@]1(O)Cc2c(O)c3c(c(O)c2[C@@H](O[C@H]2C[C@H](N)[C@H](O)[C@H](C)O2)C1)C(=O)c1ccccc1C3=O` [IDARUBICIN], the figures for the IC50 in assay [1] and in assay [2] were 0.7 µM and 7.3 µM, respectively. This compound showed an Imax in assay [3] of 100%.

For `Cn1cc(C2=C(c3ccc(Cl)cc3Cl)C(=O)NC2=O)c2ccccc21` [SB-216763], the values for the half-maximal inhibitory concentration (IC50) in assay [1] and in assay [2] were 28 µM and > 30 µM, respectively. This compound also yielded an Imax in assay [3] of 2%.
